Assay results from patent US11547697B2, “Heterocyclic compounds and uses thereof” (MILLENNIUM PHARMACEUTICALS, INC., priority 2009, dated 2023).
Where two headings read alike, the source gives them in different places.

Assays:
p110β/p85α = p110β/p85α (Homo sapiens (Human), UniProt P42338); experiment: PI 3-Kinase (human) HTRF assay, p110β/p85α; assay type: biochemical
p110γ = p110γ (Homo sapiens (Human), UniProt P48736); experiment: PI 3-Kinase (human) HTRF assay, p110γ; assay type: biochemical
p110α/p85α = p110α/p85α (Homo sapiens (Human), UniProt P42336); experiment: PI 3-Kinase (human) HTRF assay, p110α/p85α; assay type: biochemical
p110δ/p85α = p110δ/p85α (Homo sapiens (Human), UniProt O00329); experiment: PI 3-Kinase (human) HTRF assay, p110δ/p85α; assay type: biochemical
Description: An exemplary system is PI 3-Kinase (human) HTRF™ Assay from Upstate. […] Briefly, the assay is a time resolved FRET assay that indirectly measures PIP3 product formed by the activity of a PI3-K. The kinase reaction is performed in a microtitre plate (e.g., a 384 well microtitre plate). The total reaction volume is approximately 20 ul per well. In the first step, each well receives 2 ul of test compound in 20% dimethylsulphoxide resulting in a 2% DMSO final concentration. Next, approximately 14.5 ul of a kinase/PIP2 mixture (diluted in 1× reaction buffer) is added per well for a final concentration of 0.25-0.3 ug/ml kinase and 10 μM PIP2. The plate is sealed and incubated for 15 minutes at room temperature. To start the reaction, 3.5 ul of ATP (diluted in 1× reaction buffer) is added per well for a final concentration of 10 μM ATP. The plate is sealed and incubated for 1 hour at room temperature. The reaction is stopped by adding 5 ul of Stop Solution per well and then 5 ul of Detection Mix is added per well. The plate is sealed, incubated for 1 hour at room temperature, and then read on an appropriate plate reader. Data is analyzed and IC50s are generated using GraphPad Prism 5. […] For PI3K α, β, δ, and γ, the nM concentration of inhibitor to reach IC50 is provided.

[1] = tested on: tumor cells with a PI3Kα mutation (e.g., MDA-MB-361 and T47D); experiment: Proliferation of tumor cells with PI3Kα mutation; assay type: cell-based; conditions: Homo sapiens
[2] = PC3, read-out: PC3 proliferation In Vitro IC50
[3] = T47D cells, read-out: T47D proliferation
[4] = in vitro, read-out: PI3K β IC50
[5] = in vitro, read-out: PI3K γ IC50
[6] = in vitro, read-out: PI3K α IC50
[7] = in vitro, read-out: PI3K δ IC50
[8] = T47D cells, read-out: T47D proliferation IC50

Sequence of p110γ (P48736 whole entry): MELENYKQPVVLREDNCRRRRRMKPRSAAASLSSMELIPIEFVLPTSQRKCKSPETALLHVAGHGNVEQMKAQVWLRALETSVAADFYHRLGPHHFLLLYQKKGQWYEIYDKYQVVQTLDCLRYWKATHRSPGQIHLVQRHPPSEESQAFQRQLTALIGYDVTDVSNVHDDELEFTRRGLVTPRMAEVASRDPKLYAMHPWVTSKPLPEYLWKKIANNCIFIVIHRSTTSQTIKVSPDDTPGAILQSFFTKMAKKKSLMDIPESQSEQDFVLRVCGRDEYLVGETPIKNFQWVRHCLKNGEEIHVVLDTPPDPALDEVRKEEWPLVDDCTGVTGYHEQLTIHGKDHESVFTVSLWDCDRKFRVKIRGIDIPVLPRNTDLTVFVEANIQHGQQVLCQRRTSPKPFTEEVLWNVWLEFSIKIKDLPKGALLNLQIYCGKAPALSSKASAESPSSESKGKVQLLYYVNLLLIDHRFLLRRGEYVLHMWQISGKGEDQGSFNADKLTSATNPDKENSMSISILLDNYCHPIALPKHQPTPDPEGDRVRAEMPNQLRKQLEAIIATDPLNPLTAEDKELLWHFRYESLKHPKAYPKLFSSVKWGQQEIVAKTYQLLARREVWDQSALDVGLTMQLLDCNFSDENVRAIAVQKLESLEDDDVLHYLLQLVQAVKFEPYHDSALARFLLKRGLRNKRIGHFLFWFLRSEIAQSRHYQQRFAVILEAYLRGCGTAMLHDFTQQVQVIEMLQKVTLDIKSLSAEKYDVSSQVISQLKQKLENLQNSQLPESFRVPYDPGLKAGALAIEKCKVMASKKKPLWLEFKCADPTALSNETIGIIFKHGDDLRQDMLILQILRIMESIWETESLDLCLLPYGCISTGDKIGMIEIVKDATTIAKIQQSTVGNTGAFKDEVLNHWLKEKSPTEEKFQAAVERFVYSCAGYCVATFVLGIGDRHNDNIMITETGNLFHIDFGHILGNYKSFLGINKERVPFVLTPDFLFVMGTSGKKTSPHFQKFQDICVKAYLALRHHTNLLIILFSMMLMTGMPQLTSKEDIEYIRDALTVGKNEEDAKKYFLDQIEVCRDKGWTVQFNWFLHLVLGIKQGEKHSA
Sequence of p110α/p85α (P42336 whole entry): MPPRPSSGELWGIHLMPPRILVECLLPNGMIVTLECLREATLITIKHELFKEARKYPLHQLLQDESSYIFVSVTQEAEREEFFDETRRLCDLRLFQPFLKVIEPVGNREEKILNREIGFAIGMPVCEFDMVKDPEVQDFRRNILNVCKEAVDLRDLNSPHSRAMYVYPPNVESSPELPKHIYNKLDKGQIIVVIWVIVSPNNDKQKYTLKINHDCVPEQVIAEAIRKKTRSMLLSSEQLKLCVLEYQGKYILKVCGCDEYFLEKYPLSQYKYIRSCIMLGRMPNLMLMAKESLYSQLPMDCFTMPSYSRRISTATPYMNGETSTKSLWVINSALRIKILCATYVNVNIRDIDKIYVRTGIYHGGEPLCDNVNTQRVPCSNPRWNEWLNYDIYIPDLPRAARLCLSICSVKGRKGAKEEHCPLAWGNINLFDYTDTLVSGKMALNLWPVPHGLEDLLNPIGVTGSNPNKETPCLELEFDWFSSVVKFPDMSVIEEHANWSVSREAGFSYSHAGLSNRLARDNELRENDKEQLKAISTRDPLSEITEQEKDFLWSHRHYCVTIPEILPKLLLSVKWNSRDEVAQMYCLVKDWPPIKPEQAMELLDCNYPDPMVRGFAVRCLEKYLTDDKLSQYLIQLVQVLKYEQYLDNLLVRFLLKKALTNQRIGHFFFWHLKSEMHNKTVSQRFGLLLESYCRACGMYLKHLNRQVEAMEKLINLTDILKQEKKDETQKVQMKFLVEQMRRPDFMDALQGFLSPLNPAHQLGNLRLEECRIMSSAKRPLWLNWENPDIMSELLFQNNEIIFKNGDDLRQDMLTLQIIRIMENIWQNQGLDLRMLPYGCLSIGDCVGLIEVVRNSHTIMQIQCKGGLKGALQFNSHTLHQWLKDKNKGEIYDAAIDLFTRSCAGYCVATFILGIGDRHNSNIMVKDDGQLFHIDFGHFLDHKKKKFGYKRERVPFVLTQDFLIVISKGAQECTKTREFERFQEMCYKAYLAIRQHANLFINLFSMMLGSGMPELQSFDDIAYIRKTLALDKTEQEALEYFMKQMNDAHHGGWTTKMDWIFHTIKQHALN
Sequence of p110α/p85α (P27986 whole entry partner): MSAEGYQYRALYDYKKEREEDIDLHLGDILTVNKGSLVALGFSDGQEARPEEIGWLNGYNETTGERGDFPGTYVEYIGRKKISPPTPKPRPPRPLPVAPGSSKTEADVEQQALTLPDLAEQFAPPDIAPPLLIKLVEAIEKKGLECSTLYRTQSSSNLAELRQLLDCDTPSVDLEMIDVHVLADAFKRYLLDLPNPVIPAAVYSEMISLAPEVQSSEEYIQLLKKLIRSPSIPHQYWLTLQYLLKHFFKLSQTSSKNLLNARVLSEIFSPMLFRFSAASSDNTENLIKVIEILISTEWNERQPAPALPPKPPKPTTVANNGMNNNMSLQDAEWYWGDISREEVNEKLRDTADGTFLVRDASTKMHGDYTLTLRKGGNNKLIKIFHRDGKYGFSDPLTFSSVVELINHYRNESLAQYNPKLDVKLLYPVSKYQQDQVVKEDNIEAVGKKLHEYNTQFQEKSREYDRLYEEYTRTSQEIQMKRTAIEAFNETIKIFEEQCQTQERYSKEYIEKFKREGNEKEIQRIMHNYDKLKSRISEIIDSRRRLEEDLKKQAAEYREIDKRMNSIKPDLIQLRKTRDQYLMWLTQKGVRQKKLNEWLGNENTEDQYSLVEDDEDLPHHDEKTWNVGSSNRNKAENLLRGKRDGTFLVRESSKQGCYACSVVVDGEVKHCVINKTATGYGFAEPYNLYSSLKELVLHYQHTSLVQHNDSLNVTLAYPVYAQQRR
Sequence of p110δ/p85α (O00329 whole entry): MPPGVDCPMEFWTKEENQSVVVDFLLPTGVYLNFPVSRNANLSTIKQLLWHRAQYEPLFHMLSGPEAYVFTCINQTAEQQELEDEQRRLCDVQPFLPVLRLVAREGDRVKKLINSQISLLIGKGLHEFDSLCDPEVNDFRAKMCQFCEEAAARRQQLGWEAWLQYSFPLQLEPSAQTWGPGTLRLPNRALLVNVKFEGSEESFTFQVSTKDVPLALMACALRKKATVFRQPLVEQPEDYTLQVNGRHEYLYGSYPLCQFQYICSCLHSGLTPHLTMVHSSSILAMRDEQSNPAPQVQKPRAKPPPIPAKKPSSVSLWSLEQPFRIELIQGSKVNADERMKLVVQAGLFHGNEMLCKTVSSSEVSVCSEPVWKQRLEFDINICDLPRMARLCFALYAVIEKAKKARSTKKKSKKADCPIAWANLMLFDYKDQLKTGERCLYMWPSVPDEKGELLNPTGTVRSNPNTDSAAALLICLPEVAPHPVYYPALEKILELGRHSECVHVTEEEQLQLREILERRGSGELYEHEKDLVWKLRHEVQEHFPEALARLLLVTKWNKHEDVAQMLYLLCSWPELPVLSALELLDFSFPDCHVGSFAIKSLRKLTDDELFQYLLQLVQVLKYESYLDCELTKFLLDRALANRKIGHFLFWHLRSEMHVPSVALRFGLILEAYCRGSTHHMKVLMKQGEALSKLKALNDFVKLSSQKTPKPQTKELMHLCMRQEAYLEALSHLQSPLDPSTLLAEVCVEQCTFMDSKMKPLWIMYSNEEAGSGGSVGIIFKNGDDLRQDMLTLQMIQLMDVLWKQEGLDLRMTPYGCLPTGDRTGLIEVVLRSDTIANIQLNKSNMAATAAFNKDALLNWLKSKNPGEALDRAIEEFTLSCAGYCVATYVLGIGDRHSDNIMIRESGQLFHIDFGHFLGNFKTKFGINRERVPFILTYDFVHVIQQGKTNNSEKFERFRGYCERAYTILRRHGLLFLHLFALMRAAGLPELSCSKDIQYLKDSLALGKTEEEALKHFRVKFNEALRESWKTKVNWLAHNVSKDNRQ
Sequence of p110δ/p85α (P27986 whole entry partner): as the sequence (P27986 whole entry partner) above
Sequence of p110β/p85α (P42338 whole entry): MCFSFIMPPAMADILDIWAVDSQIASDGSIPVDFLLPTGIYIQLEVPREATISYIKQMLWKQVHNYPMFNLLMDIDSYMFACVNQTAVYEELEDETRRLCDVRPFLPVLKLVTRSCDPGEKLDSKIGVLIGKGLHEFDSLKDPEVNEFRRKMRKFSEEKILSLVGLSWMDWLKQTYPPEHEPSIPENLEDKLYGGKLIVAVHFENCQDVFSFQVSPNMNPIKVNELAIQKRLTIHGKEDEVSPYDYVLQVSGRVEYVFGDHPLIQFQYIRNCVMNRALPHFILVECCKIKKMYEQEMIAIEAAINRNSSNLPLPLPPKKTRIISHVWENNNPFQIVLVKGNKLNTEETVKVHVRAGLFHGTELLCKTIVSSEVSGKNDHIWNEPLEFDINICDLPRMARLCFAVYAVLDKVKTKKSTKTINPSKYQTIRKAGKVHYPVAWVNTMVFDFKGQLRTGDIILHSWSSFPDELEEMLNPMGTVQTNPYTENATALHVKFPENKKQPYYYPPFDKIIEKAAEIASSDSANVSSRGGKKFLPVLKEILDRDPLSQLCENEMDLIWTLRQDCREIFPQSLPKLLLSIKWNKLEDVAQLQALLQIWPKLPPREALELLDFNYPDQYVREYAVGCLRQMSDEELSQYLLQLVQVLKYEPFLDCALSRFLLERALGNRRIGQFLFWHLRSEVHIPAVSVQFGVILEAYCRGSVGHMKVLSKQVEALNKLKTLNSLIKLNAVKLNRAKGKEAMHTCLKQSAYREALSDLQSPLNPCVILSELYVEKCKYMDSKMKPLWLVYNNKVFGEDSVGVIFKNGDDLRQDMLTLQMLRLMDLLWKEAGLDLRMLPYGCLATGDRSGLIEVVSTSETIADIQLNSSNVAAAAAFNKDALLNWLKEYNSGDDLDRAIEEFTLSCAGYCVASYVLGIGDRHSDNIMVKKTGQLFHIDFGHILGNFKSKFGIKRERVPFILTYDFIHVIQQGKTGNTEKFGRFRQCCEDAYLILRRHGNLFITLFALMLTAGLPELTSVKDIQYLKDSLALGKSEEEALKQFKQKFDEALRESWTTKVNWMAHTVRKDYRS
Sequence of p110β/p85α (P27986 whole entry partner): as the sequence (P27986 whole entry partner) above

O=C(c1cnc2ccc(-c3cnc(Cl)c(NS(=O)(=O)c4ccccc4)c3)cn12)N1CCOCC1 [compound 451]
IC50 (p110β/p85α; read-out: PI3K β In Vitro IC50): < 1 µM | IC50 (p110γ; read-out: PI3K γ In Vitro IC50): < 0.1 µM | IC50 (p110α/p85α; read-out: PI3K α In Vitro IC50): < 0.1 µM | IC50 (p110δ/p85α; read-out: PI3K δ In Vitro IC50): < 0.1 µM | IC50 [1, 2]: < 1 µM

O=C(c1cnc2ccc(-c3cnc(Cl)c(NS(=O)(=O)c4cccc(F)c4)c3)cn12)N1CCOCC1 [compound 458]
IC50 (p110β/p85α; read-out: PI3K β In Vitro IC50): < 0.1 µM | IC50 (p110γ; read-out: PI3K γ In Vitro IC50): < 0.1 µM | IC50 (p110α/p85α; read-out: PI3K α In Vitro IC50): < 0.1 µM | IC50 (p110δ/p85α; read-out: PI3K δ In Vitro IC50): < 0.1 µM | IC50 [1, 2]: < 1 µM

Nc1nc2cc(-c3ccc4ncc(N5CCCC5)nc4c3)ccc2o1 [compound 176]
IC50 (p110β/p85α; read-out: PI3K β IC50): < 1 µM | IC50 (p110γ; read-out: PI3K γ IC50): < 0.1 µM | IC50 (p110α/p85α; read-out: PI3K α IC50): < 0.1 µM | IC50 (p110δ/p85α; read-out: PI3K δ IC50): < 1 µM | IC50 [1, 3]: < 1 µM

C[C@@H]1CN(C2CN(c3cnc4ccc(-c5ccc6oc(N)nc6c5)cc4n3)C2)CCN1 [compound 355]
IC50 (p110β/p85α; [4]): < 10 µM | IC50 (p110γ; [5]): < 10 µM | IC50 (p110α/p85α; [6]): < 0.1 µM | IC50 (p110δ/p85α; [7]): < 1 µM | IC50 [1, 8]: < 1 µM

Nc1nc2cc(-c3ccc4ncc(C(=O)N5CC(N6CC[C@H](O)C6)C5)n4c3)ccc2o1 [compound 469]
IC50 (p110β/p85α; read-out: PI3K β In Vitro IC50): < 10 µM | IC50 (p110γ; read-out: PI3K γ In Vitro IC50): < 1 µM | IC50 (p110α/p85α; read-out: PI3K α In Vitro IC50): < 0.1 µM | IC50 (p110δ/p85α; read-out: PI3K δ In Vitro IC50): < 10 µM | IC50 [1, 2]: < 10 µM

CN(C)CC(=O)N1CCN(c2cnc3ccc(-c4ccc5oc(N)nc5c4)cc3n2)CC1 [compound 139]
IC50 (p110β/p85α; read-out: PI3K β IC50): < 1 µM | IC50 (p110γ; read-out: PI3K γ IC50): < 1 µM | IC50 (p110α/p85α; read-out: PI3K α IC50): < 0.1 µM | IC50 (p110δ/p85α; read-out: PI3K δ IC50): < 1 µM | IC50 [1, 3]: < 1 µM

CC(C)[C@H](N)C(=O)N1CCN(c2cnc3ccc(-c4ccc5oc(N)nc5c4)cc3n2)CC1 [compound 269]
IC50 (p110β/p85α; [4]): < 1 µM | IC50 (p110γ; [5]): < 10 µM | IC50 (p110α/p85α; [6]): < 0.1 µM | IC50 (p110δ/p85α; [7]): < 1 µM | IC50 [1, 8]: < 10 µM

Nc1nc2cc(-c3ccc4ncc(N5CC(C(=O)N6CCN(CC7CC7)CC6)C5)nc4c3)ccc2o1 [compound 287]
IC50 (p110β/p85α; [4]): < 10 µM | IC50 (p110γ; [5]): < 1 µM | IC50 (p110α/p85α; [6]): < 0.1 µM | IC50 (p110δ/p85α; [7]): < 1 µM | IC50 [1, 8]: < 10 µM

COc1ncc(-c2ccc3ncn(C4CCN(C)CC4)c(=O)c3c2)cc1NS(=O)(=O)c1ccccc1 [compound 524]
IC50 (p110β/p85α; read-out: PI3K β In Vitro IC50): < 0.1 µM | IC50 (p110γ; read-out: PI3K γ In Vitro IC50): < 1 µM | IC50 (p110α/p85α; read-out: PI3K α In Vitro IC50): < 0.1 µM | IC50 (p110δ/p85α; read-out: PI3K δ In Vitro IC50): < 0.1 µM | IC50 [1, 2]: < 1 µM

Nc1nc2cc(-c3ccc4ncc(N5CCC(O)CC5)nc4c3)ccc2o1 [compound 99]
IC50 (p110β/p85α; read-out: PI3K β IC50): < 10 µM | IC50 (p110γ; read-out: PI3K γ IC50): < 1 µM | IC50 (p110α/p85α; read-out: PI3K α IC50): < 0.1 µM | IC50 (p110δ/p85α; read-out: PI3K δ IC50): < 1 µM | IC50 [1, 3]: < 10 µM

Nc1nc2cc(-c3ccc4ncc(C(=O)NCCCN5CCCC5)n4c3)ccc2o1 [compound 293]
IC50 (p110β/p85α; [4]): < 1 µM | IC50 (p110γ; [5]): < 1 µM | IC50 (p110α/p85α; [6]): < 0.1 µM | IC50 (p110δ/p85α; [7]): < 0.1 µM | IC50 [1, 8]: < 1 µM

CNC(=O)CN1CCN(c2cnc3ccc(-c4ccc5oc(N)nc5c4)cc3n2)CC1 [compound 120]
IC50 (p110β/p85α; read-out: PI3K β IC50): < 1 µM | IC50 (p110α/p85α; read-out: PI3K α IC50): < 0.1 µM | IC50 (p110δ/p85α; read-out: PI3K δ IC50): < 10 µM | IC50 [1, 3]: < 1 µM

Nc1nc2cc(-c3ccc4ncc(N5CCC(N)CC5)nc4c3)ccc2o1 [compound 168]
IC50 (p110β/p85α; read-out: PI3K β IC50): < 1 µM | IC50 (p110α/p85α; read-out: PI3K α IC50): < 0.1 µM | IC50 (p110δ/p85α; read-out: PI3K δ IC50): < 10 µM | IC50 [1, 3]: < 10 µM

CN1CCC(n2cnc3ccc(-c4cnc(Cl)c(NS(C)(=O)=O)c4)cc3c2=O)CC1 [compound 526]
IC50 (p110β/p85α; read-out: PI3K β In Vitro IC50): < 10 µM | IC50 (p110α/p85α; read-out: PI3K α In Vitro IC50): < 0.1 µM | IC50 (p110δ/p85α; read-out: PI3K δ In Vitro IC50): < 1 µM | IC50 [1, 2]: < 10 µM

Nc1nc2cc(-c3ccc4ncc(N5CC(N6CCN(CC7CC7)CC6)C5)nc4c3)ccc2o1 [compound 335]
IC50 (p110β/p85α; [4]): < 10 µM | IC50 (p110α/p85α; [6]): < 0.1 µM | IC50 (p110δ/p85α; [7]): < 10 µM | IC50 [1, 8]: < 1 µM

CC(C)(N)C(=O)N1CCN(c2cnc3ccc(-c4ccc5oc(N)nc5c4)cc3n2)CC1 [compound 213]
IC50 (p110β/p85α; [4]): < 1 µM | IC50 (p110α/p85α; [6]): < 0.1 µM | IC50 (p110δ/p85α; [7]): < 1 µM | IC50 [1, 8]: < 1 µM

Nc1nc2cc(-c3ccc4ncc(C(=O)N5C6CCC5COC6)n4c3)ccc2o1 [compound 480]
IC50 (p110γ; read-out: PI3K γ In Vitro IC50): < 1 µM | IC50 (p110α/p85α; read-out: PI3K α In Vitro IC50): < 0.1 µM | IC50 (p110δ/p85α; read-out: PI3K δ In Vitro IC50): < 10 µM | IC50 [1, 2]: < 1 µM

Nc1nc2cc(-c3ccc4ncc(N5CC(N6CCC(O)CC6)C5)nc4c3)ccc2o1 [compound 341]
IC50 (p110γ; [5]): < 10 µM | IC50 (p110α/p85α; [6]): < 1 µM | IC50 (p110δ/p85α; [7]): < 10 µM | IC50 [1, 8]: < 10 µM
